Values joined by “and” are separate entries in the source; they are usually repeats but may differ in a detail not shown here. Equal values may be shown once. “Also recorded” adds a separate entry of the source. Read-outs that look alike come from different tables or passages of the source.
Experiments:
[1] = system: internal anal sphincter (IAS) smooth muscle; experiment: NANC nerve-mediated relaxation of IAS smooth muscle strips by electrical field stimulation; parameters: species or system opossum (Didelphis virginiana); conditions: for reversal of L-NNA-suppressed IAS relaxation: with L-NNA, L-HO-Arg and ABHA 3×10^−4 molar; for decrease in IAS tension after L-HO-Arg: 3×10^−4 molar
Text: The entire anal canal was isolated carefully by dissection and transferred to a dissecting tray containing oxygenated (95% O2 plus 5% CO2) Krebs' solution. The composition of the Krebs' solution was as follows (in millimolar): NaCl, 118.07; KCl 4.69; […] MgSO4, 1.16; […] NaHCO3, 25 and glucose (Pufahl et al., 1995, Biochemistry 34:1930-1941; […] et al., 1993, Biochem. Biophys. Res. Commun. 196:1558-1565). The anal canal was cleaned of extraneous connective tissue and blood vessels. Following this, the anal canal was opened by making an incision along the longitudinal axis, and was pinned flat with the mucosal side facing up. The mucosa and submucosa were removed by sharp dissection. Circular smooth muscle strips were obtained from the whole circumference of the anal canal and divided into two equal strips (about 1×8 millimeters). Both ends of the muscle strips were secured with silk sutures (4-0: Ethicon Inc., Sommerville, N.J.) and used for the measurement of isometric tension. […] One end of each muscle strip was fixed to the bottom of the muscle bath with a tissue holder and the other end was attached to an isometric force transducer (model FT03; Grass Instruments Co., Quincy, Mass.) in order to measure isometric tension. Smooth muscle tension was recorded using a […] recorder (model […]; Beckman Instruments, Schiller Park, Ill.). […] J. Physiol. 255:[…]-[…]). Only those smooth muscle strips that developed spontaneous and steady tension and relaxed in response to electrical field stimulation (EFS) were used. EFS was delivered, via a pair of platinum wires, from a Grass stimulator (Model S88; Grass Instruments Co., Quincy, Mass.) connected in series to a Med-Lab […] (Med-Lab Instruments, Loveland, Colo.). […] These parameters of EFS are known to cause relaxation of IAS smooth muscle by selective activation of NANC myenteric neurons. Neurally-mediated relaxation of IAS smooth muscle strips was quantified in response to different frequencies of EFS. […] To determine the influence of arginase on NANC nerve-mediated relaxation of IAS, the effects of different doses of arginase on relaxation were first determined. […] The effectiveness of arginase inhibitors (L-OH-Arg and ABHA) on arginase-induced attenuation of EFS-induced IAS relaxation was then tested. Optimal doses of arginase and L-OH-Arg in IAS have been reported ([…] and […]. Pharmacol. Exp. Ther. 282:378-384). In order to determine the selectivity of arginase inhibitors in IAS, their effects on IAS relaxation suppressed by the NO synthase inhibitor L-NNA ([…]) were tested. […] To examine the physiological relevance of arginase inhibitors in IAS relaxation, the influence of selected concentrations of arginase inhibitors on EFS-induced IAS relaxation was examined. […] Each smooth muscle strip served as its own control. […] The results are expressed as means±standard error.

[2] = target: T1, arginase (Rattus norvegicus, UniProt P07824); conditions: cited from earlier work
T1 sequence (P07824 1-323): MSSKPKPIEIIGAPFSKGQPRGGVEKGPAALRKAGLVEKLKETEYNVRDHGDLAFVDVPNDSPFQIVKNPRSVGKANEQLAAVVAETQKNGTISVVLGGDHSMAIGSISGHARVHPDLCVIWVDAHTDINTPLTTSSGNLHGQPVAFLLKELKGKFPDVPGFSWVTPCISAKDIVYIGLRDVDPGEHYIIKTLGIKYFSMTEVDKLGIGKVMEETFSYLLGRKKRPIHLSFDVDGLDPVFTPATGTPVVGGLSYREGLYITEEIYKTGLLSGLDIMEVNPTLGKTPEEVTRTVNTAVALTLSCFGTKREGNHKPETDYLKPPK

[3] = target: arginase; conditions: read-out: Ki previously reported; cited from earlier work
[4] = target: T2, rat liver arginase (Rattus norvegicus, UniProt P07824); experiment: continuous chromogenic arginase assay with substrate 1-nitro-3-guanidinobenzene (compound 18); format: biochemical; parameters: made in house; conditions: for tnpseudo (moles of inhibitor/mole of arginase): 2 millimolar compound 18 as substrate, pseudo-turnover number, smaller = better inhibition
T2 sequence (P07824 1-323): T1 sequence (P07824 1-323)
Experimental: The activity of wild-type arginase was monitored spectrophotometrically using a Pharmacia BIOTECH ULTROSPEC™ 2000. Assays were performed in a solution comprising 100 micromolar MnCl2 and 50 millimolar bicine-NaOH (pH 9.0). […] Eadie-Hofstee plots were used to analyze the data.

[5] = target: T2, rat liver arginase; experiment: radioactive L-[guanidino-14C]arginine arginase assay (Example 3); format: biochemical; parameters: made in house
Experimental: Assays were performed in 100 micromolar MnCl2, 100 millimolar CHES-NaOH (pH 9.0). The reactions were initiated by addition of 5 microliters of a circa 1 unit per milliliter enzyme solution to 45 microliters of reaction mixture containing CHES buffer, 1.4 millimolar L-arginine, about 5.0×10^4 counts per minute of L-[guanidino- ^14C]arginine, and variable concentrations of the appropriate inhibitor. After a 5-15 minute reaction time, 200 microliters of a stop solution containing 7 molar urea, 10 millimolar L-arginine, and 0.25 molar acetic acid (pH 4.5) was added to the reaction (arginase has essentially no activity under these conditions). [^14C]-Urea was separated from non-reacted L-[guanidino-^14 C]arginine by treatment with 200 microliters of a 1:1 (vol/vol) slurry of DOWEX™ 50 W-X8 in water, and quantitated by adding 200 microliters of the supernatant from the DOWEX™ treatment to 3 milliliters of LIQUISCINT™ (National Diagnostics) for liquid scintillation counting in a Beckman LS5000CE counter.

[6] = target: T1, arginase; experiment: isothermal titration calorimetry; format: binding; parameters: made in house
Experimental: All calorimetry experiments were conducted on a MCS isothermal calorimeter from MicroCal, Inc. (Northampton, Mass.). Arginase was exhaustively dialyzed against a solution comprising 100 micromolar MnCl2 and 50 millimolar bicine-NaOH (pH 8.5). […] Prior to the titration experiment, samples were de-gassed under vacuum for 5 minutes. […] The contents of the sample cell were titrated with 30-40 aliquots (2.5 microliters each) of inhibitor (an initial 1 microliters injection was made, but not used in data analysis). After each injection, the heat change was measured and converted to the corresponding enthalpy value. The reaction mixture was continuously stirred at 400 rotations per minute during titration. Control experiments were carried out by titrating the inhibitor into the buffer solution under identical experimental conditions. Data analysis was performed using ORIGIN™ software provided with the instrument. The calorimetric data are presented with the background titrations subtracted from the experimental data. The amount of heat produced per injection was calculated by integration of the area under each peak. The data were fit to the following equation, […]

[7] = target: T2, rat liver arginase; experiment: [14C-guanidino]-arginine arginase activity assay (Example 2); format: biochemical; conditions: 100 millimolar CHES, pH 9.0, 1 millimolar arginine; read-out: IC50 for inhibition of arginase
Experimental: Arginase activity was assessed using the ^(14C-guanidino)-arginine assay of Rüegg et al. (1980, Anal. Biochem. 102:206-212), as described (Reczkowski et al., 1994, Arch. Biochem. Biophys. 312:31-37). […] […] et al., 1994, Biochem. Biophys. Res.

[8] = system: liver arginase activity; experiment: arginase activity in liver homogenate; format: biochemical, opossum; conditions: for potency against liver arginase activity relative to non-hepatic tissues: liver versus IAS, rectum, brain
Text: (§1) Tissue samples of the opossum internal anal sphincter muscle (IAS), adjoining rectal tissue, liver, and brain were homogenized using an ULTRATURRAX™ tissue homogenizer (Tekamr, Cincinnati, Ohio) in a solution comprising 10 millimolar Tris-HCl, 150 millimolar KCl, and 25 millimolar MnCl2, at pH 7.4. The homogenates were dialyzed overnight against the same solution. Dialyzed homogenates were centrifuged to remove insoluble material and concentrated with Amicon CENTRICON™ 30 microconcentrators to yield stock protein preparations having protein concentrations of 2.4 milligrams per milliliter for IAS smooth muscle, 3.6 milligrams per milliliter for rectal smooth muscle, 3 milligrams per milliliter for brain, and 17.5 milligrams per milliliter for liver. Protein concentrations were estimated with the Pierce Coomassie Protein Reagent kit using bovine serum albumin as a standard.
(§2) Arginase activity in tissue homogenates was evaluated using the radioactive L-[guanidino^14C]arginine assay of Rüegg and Russell (1980, Anal. Biochem. 102:206-212). Assays were performed using a solution comprising 100 millimolar CHES-NaOH and 0.1 millimolar MnCl2 at pH 9.0. The reactions were initiated by addition of 5 microliters of tissue homogenate to 45 microliters of reaction mixture that contained the CHES buffer, the appropriate concentration of arginine (0.5 to 5 millimolar) and about 5.0×10^4 counts per minute of L-[guanidino-^14C]arginine. IAS, rectal muscle, and brain homogenates were incubated with the assay mixture at room temperature for one hour, and the liver sample was incubated for 5 minutes. The reactions were stopped by addition of 200 microliters of a stop solution containing 0.25 molar acetic acid, 7 molar urea, and 10 millimolar arginase at pH 4.5. Arginase has essentially no activity at the low pH of the stop solution. [^14C] Urea was separated from non-reacted L-[guanidino-^14C]arginine by treatment with 200 μl of 1:1 v/v slurry of DOWEX™ 50W-X8 in water, and quantitated by adding 200 microliters of the supernatant from the DOWEX™ treatment to 3 milliliters of LIQUISCENT™ (National Diagnostics) for liquid scintillation counting in a Beckman LS 5000CE counter. The data were analyzed using double-reciprocal plots of the initial velocity measurements; standard errors were determined by regression analysis.
(§3) Assays in the presence of the inhibitors N^ω-hydroxy-L-arginine (1 to 100 micromolar) and ABHA (0.05 to 100 micromolar) were performed as described above. The amino acid D-ornithine served as a control in these experiments, since this amino acid, unlike L-omithine, is not an inhibitor of arginase.

[9] = target: rectum arginase activity; experiment: arginase activity in rectum homogenate; format: biochemical, opossum; conditions: rectum; read-out: IC50 for inhibition of arginase activity, rectum homogenate
Text: as §1, §2, §3

[10] = target: brain arginase activity; experiment: arginase activity in brain homogenate; format: biochemical, opossum; conditions: brain; read-out: IC50 for inhibition of arginase activity, brain homogenate
Text: as §1
as §2, with “The reactions were stopped by addition of 200 microliters of a stop solution containing 0.25 molar acetic acid, 7 molar urea, and 10 millimolar arginase at pH 4.5. Arginase has essentially no activity at the low pH of the stop solution. [^14C]” left out, “analysis. […]” for “analysis.”

[11] = target: IAS arginase activity; experiment: arginase activity in IAS homogenate; format: biochemical, opossum; conditions: IAS; read-out: IC50 for inhibition of arginase activity, IAS homogenate
Text: as §1
as §2, with “The reactions were stopped by addition of 200 microliters of a stop solution containing 0.25 molar acetic acid, 7 molar urea, and 10 millimolar arginase at pH 4.5. Arginase has essentially no activity at the low pH of the stop solution. [^14C]” left out, “analysis. […]” for “analysis.”

Structure (SMILES): N=C(N)NCCC[C@H](N)C(=O)O [L-arginine]
- reversal of L-NNA-suppressed IAS relaxation [1]: significant and concentration-dependent reversal
- kcat reported ([2]; as substrate): 15,000±1200 reciprocal minutes
- Km ([2]; as substrate, read-out: KM reported): 1400 ± 300 µM

Structure (SMILES): NCCCC[C@H](NO)C(=O)O [N-hydroxylysine]
- Ki [3]: 4 µM

Structure (SMILES): N[C@@H](CSCC[Si](O)(O)O)C(=O)O [compound 16, S-(2-trihydroxysilylethyl)-L-cysteine]
- Ki ([4]; assay with substrate 18, assuming competitive inhibition): 420 µM

Structure (SMILES): N[C@@H](CSCCB(O)O)C(=O)O [compound 15, S-(2-boronoethyl)-L-cysteine]
- tnpseudo (moles of inhibitor/mole of arginase) [4]: 1.00 ± 0.004 moles of inhibitor/mole of arginase
- Ki [5]: 0.7 µM
- Kd [6]: 2.22 µM
- association constant (Ka) ([6]; pH 8.5, 25° C.): 4.50×10^5 inverse molar
- enthalpy change (ΔH) of binding ([6]; pH 8.5, 25° C.): −12.75 kilocalories per mole
- stoichiometry (n), moles bound per mole of arginase monomer ([6]; pH 8.5, 25° C.): 0.96 and 0.964

Structure (SMILES): NC(CCCCC(N)C(=O)O)=NO (centres unmarked) [N-hydroxyindospicine]
- Ki [3]: 20 µM

Structure (SMILES): O[B-](O)(O)O [borate]
- Ki ([2]; non-competitive inhibitor, read-out: KII): 260 µM
- Ki ([2]; non-competitive inhibitor, read-out: KIS): 980 µM

Structure (SMILES): NCCC[C@H](N)C(=O)O [ornithine]
- Ki ([2]; read-out: Ki): 1000 µM

Structure (SMILES): N=C(NO)NCC[C@H](N)C(=O)O [N-hydroxy-nor-arginine]
- Ki [3]: 0.5 µM

Structure (SMILES): N[C@@H](CCCB(O)O)C(=O)O [compound 12, 2(S)-amino-5-boronopentanoic acid]
- tnpseudo (moles of inhibitor/mole of arginase) [4]: 420 ± 30 moles of inhibitor/mole of arginase
- fold less potent than compounds 7 and 15 (from tnpseudo) ([4]; substrate 18): about 400 fold

Structure (SMILES): N=C(N)Nc1cccc([N+](=O)[O-])c1 [compound 18, 1-nitro-3-guanidinobenzene]
- kcat for arginase-catalyzed hydrolysis ([4]; as substrate, monomer 35 kilodaltons): 0.09±0.02 reciprocal minutes

Structure (SMILES): N=C(NO)NCCC[C@H](N)C(=O)O [N-hydroxyarginine, N^ω-hydroxy-L-arginine]
- IC50 [7]: 80 µM
- potency against liver arginase activity relative to non-hepatic tissues ([8]; listed as L-HO-Arg): 10-20 fold
- potency against liver arginase activity relative to non-hepatic tissues ([8]; listed as N^107-hydroxy-L-arginine): about 10 fold
- IC50 ([8]; liver, read-out: IC50 for inhibition of arginase activity, liver homogenate): 2.4 µM
- IC50 [9]: 42 µM
- IC50 [10]: 40 µM
- IC50 [11]: 25 µM
- decrease in IAS tension after L-HO-Arg ([1]; 0.5 Hertz EFS): 57.4±4.9%
- decrease in IAS tension after L-HO-Arg ([1]; 1 Hertz EFS): 68.8±4.9%
- effect on arginase-suppressed EFS-induced IAS relaxation ([1]; exogenous arginase, L-HO-Arg 1×10^−4 molar): antagonized the effect of arginase; also recorded: reversal
- augmentation of NANC nerve-mediated IAS relaxation by EFS ([1]; lower frequencies of EFS, listed as L-HO-Arg): significant and concentration-dependent augmentation
- reversal of L-NNA-suppressed IAS relaxation [1]: dose-dependent and complete reversal; also recorded: completely reversed
- Ki [3]: 42 µM
